Measured values reported in patent US11667631B2, “FGFR4 inhibitor, preparation method therefor, and applications thereof” (Jiangsu Hansoh Pharmaceutical Group Co., Ltd., priority 2016, dated 2023).
Like-named read-outs stand apart in the source and are kept apart here.

Key:
SK-HEP-1 cells = assay: Inhibition of SK-HEP-1 cell proliferation (CellTiter-Glo); format: cell-based; conditions: read-out: SK-HEP-1 IC50
Protocol: In this experiment, the inhibitory effect of the compounds on SK-HEP-1 cell proliferation was tested by a CellTiter-Glo method, and the half maximal inhibitory concentration (IC50) of the compounds on the activity of cell proliferation was determined.
1) A 96-well cell culture plate was seeded with 50˜100 μL of SK-HEP-1 cell suspension at a density of 1˜5×10^4 cells/ml. The culture plate was incubated in an incubator for 16˜24 hours (37° C., 5% CO2).
(§1) 2) Different concentrations of the test compound in a gradient dilution were added to the cells in the culture plate. The culture plate was incubated in an incubator for 72 hours (37° C., 5% CO2).
(§2) 3) 50˜100 μL of CellTiter-Glo reagent were added to each well. Then, the culture plate was shaken or left to stand for 5˜30 minutes at room temperature.
(§3) 4) The chemiluminescence signal values of each plate were determined by a microplate reader.
(§4) 5) The inhibition rates were calculated according to the chemiluminescence signal values.
(§5) 6) The IC50 of the compound was obtained by curve fitting according to the inhibition rates at different concentrations, and the cell activity of the specific example compounds is shown in Table 2.

FGFR1 kinase = FGFR1 kinase (Homo sapiens (Human), UniProt P11362); assay: Enzymologic experiment of FGFR1 (TR-FRET); format: biochemical; conditions: FGFR1 kinase activity
FGFR1 kinase, sequence (P11362 22-822): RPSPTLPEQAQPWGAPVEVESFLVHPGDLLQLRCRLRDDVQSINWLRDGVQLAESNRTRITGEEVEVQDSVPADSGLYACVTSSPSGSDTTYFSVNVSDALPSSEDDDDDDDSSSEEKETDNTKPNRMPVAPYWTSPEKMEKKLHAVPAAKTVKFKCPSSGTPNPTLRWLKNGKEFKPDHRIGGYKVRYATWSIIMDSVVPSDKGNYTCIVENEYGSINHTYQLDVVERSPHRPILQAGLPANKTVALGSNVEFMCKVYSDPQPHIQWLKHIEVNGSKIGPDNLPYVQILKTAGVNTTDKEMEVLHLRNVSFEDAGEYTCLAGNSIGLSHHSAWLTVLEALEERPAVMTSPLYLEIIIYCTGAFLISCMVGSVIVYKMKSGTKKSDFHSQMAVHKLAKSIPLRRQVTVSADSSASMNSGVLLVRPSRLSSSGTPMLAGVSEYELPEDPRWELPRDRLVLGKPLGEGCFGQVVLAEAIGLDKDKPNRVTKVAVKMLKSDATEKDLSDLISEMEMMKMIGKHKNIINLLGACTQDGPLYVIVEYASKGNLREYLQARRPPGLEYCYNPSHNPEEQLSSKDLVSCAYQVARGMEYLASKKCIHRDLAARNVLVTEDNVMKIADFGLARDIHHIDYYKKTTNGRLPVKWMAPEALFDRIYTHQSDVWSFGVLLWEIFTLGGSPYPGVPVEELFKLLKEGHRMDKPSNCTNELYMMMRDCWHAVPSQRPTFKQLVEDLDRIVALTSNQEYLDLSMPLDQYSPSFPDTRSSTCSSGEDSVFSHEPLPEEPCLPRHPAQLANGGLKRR
Protocol: In this experiment, the inhibitory effect of the compounds on FGFR1 kinase activity was tested by a fluorescence resonance energy transfer (TR-FRET) method, and the half maximal inhibitory concentration (IC50) of the compounds on the FGFR1 kinase activity was determined.
1) 1˜5 μL of FGFR1 enzyme solution was added to a 384-well plate, and the final concentration of the enzyme was 0.1˜5 nM.
2) 1˜5 μL of diluted solution in gradient of the compound was added.
3) 1˜5 μL of a substrate mixture containing substrate polypeptide with a final concentration of 5˜50 nM and ATP with a final concentration of 10˜200 μM was added.
4) The mixture was incubated for 0.5˜3 hours at room temperature.
5) 10 μL of EDTA and a test solution comprising labeled antibody were added, and the plate was incubated for 1 hour at room temperature.
6) The fluorescence signal values of each plate were determined by a microplate reader at 665 nm.
7) The inhibition rates were calculated according to the fluorescence signal values.
8) The IC50 of the compound was obtained by curve fitting according to the inhibition rates at different concentrations, and the enzymatic activity of the specific example compounds is shown in Table 1.

HuH-7 cells = assay: Inhibition of HuH-7 cell proliferation (CellTiter-Glo); format: cell-based; conditions: Homo sapiens, Huh-7, 72 h, read-out: HuH-7 IC50
Protocol: In this experiment, the inhibitory effect of the compounds on HuH-7 cell proliferation was tested by a CellTiter-Glo method, and the half maximal inhibitory concentration (IC50) of the compounds on the activity of cell proliferation was determined.
1) A 96-well cell culture plate was seeded with 50˜100 μL of HuH-7 cell suspension at a density of 1˜5×10^4 cells/ml. The culture plate was incubated in an incubator for 16˜24 hours (37° C., 5% CO2).
as §1
3) 50˜100 μL of CellTiter-Glo reagent was added to each well. Then, the culture plate was shaken or left to stand for 5˜30 minutes at room temperature.
as §3, §4, §5

Hep 3B cells = assay: Inhibition of Hep 3B cell proliferation (CellTiter-Glo); format: cell-based
Protocol: In this experiment, the inhibitory effect of the compounds on Hep 3B cell proliferation was tested by a CellTiter-Glo method, and the half maximal inhibitory concentration (IC50) of the compounds on the activity of cell proliferation was determined.
1) A 96-well cell culture plate was seeded with 50˜100 μL of Hep 3B cell suspension at a density of 1˜5×10^4 cells/ml. The culture plate was incubated in an incubator for 16˜24 hours (37° C., 5% CO2).
as §1, §2, §3, §4

[1] = Pharmacokinetic (PK) analysis in rats; format: in vivo, Sprague Dawley (SD) rats; conditions: SD rats, single intragastric administration, 5 mg/kg; for Peak Time tmax: (sampling in hours); for AUC(0-t) / AUC(0-inf) / half-life / MRT / Cmax: Sprague-Dawley, rat, plasma, po; for AUC(0-t): read-out: Area Under Curve AUC0-t; for AUC(0-inf): read-out: Area Under Curve AUC0-∞; for half-life: read-out: Half-Time t1/2 (converted); for MRT: read-out: Mean Residence Time MRT; for Cmax: read-out: Plasma Concentration Cmax
Protocol: 1) 0.2 ml of intravenous blood was collected and placed in a K2EDTA test tube. The blood was centrifuged at room temperature at the speed of 1000˜3000×g for 5˜20 minutes to isolate the plasma, which was then stored at −80° C.
2) 160 μL of acetonitrile was added to 40 μL of plasma sample for precipitation, and then the mixture was centrifuged at the speed of 500˜2000×g for 5˜20 minutes.
3) 100 μL of treated solution was taken, and the concentration of the test compound was analyzed by LC/MS/MS. The LC/MS/MS analytical instrument was AB Sciex API 4000. • Liquid chromatography analysis: • Condition of Liquid chromatography: Shimadzu LC-20AD pump • Chromatographic column: phenomenex Gemiu 5 um C18 50×4.6 mm • Mobile phase: Solution A is 0.1% formic acid aqueous solution, and Solution B is acetonitrile • Flow rate: 0.8 mL/min • Elution time: 0-3.5 minutes, the eluent was used as follows: […]

[2] = Homo sapiens, Hep3B, 72 h, read-out: Hep 3B IC50, Hep 3B cell proliferation, 72 hours, CellTiter-Glo
[3] = read-out: Hep 3B IC50, Hep 3B cell proliferation, 72 hours, CellTiter-Glo

Structure (SMILES)	IC50 (SK-HEP-1 cells; Homo sapiens, SK-HEP1, 72 h) [µM]	IC50 (FGFR1 kinase) [µM]	IC50 (HuH-7 cells) [nM]	IC50 (Hep 3B cells; [2]) [nM]	IC50 (Hep 3B cells; [3]) [nM]	Peak Time tmax [1] [h]	AUC(0-t) [1] [ng·h/mL]	AUC(0-inf) [1] [ng·h/mL]	half-life [1] [min]	MRT [1] [h]	Cmax [1] [ng/mL]	IC50 (SK-HEP-1 cells; SK-HEP-1 cell proliferation, 72 hours, CellTiter-Glo) [µM]
CO[C@H]1CCN(c2cc(NC(=O)N3CCCc4cc(CN5CCCOC5=O)c(C=O)nc43)ncc2C#N)C1 [Example 50, (S)-N-(5-Cyano-4-(3-methoxypyrrolidin-1-yl)pyridin-2-yl)-7-formyl-6-((2-carbonyl-1,3-oxazinan-3-yl)methyl)-3,4-dihydro-1,8-naphthyridin-1(2H)-carboxamide]	> 10	> 10	15.3	5.5								
N#Cc1cnc(NC(=O)N2CCCc3cc(CN4CCCCOC4=O)c(C=O)nc32)cc1N[C@H]1CCOC1 [Example 33]	> 10	> 10	7.2	3.7								
CO[C@H]1CCOCC1Oc1cc(NC(=O)N2CCCc3cc(CN4CCOCC4=O)c(C=O)nc32)ncc1C#N (stereo partly drawn) [Example 68, N-(5-Cyano-4-(((3,4)-trans-4-methoxytetrahydro-2H-pyran-3-yl)oxy)pyridin-2-yl) -7-formyl-6-((3-carbonylmorpholino)methyl)-3,4-dihydro-1,8-naphthyridin-1(2H)-carboxamide]	> 10	> 10	40.8		10.9							
COC[C@@H](C)Oc1cc(NC(=O)N2CCCc3cc(CN4CCCCOC4=O)c(C=O)nc32)ncc1C#N [Example 35]	> 10	> 10	4.6	2.2								
COC1CN(c2cc(NC(=O)N3CCCc4cc(CN5CCOCC5=O)c(C=O)nc43)ncc2C#N)C1 [Example 53, N-(5-Cyano-4-(3-methoxyazetidin-1-yl)pyridin-2-yl)-7-formyl-6-((3-carbonylmorpholino)methyl)-3,4-dihydro-1,8-naphthyridin-1(2H)-carboxamide]	> 10	> 10		41.5								
CO[C@H]1CCN(c2cc(NC(=O)N3CCCc4cc(CN5C(=O)OC[C@@H]5C)c(C=O)nc43)ncc2C#N)C1 [Example 39, N-(5-Cyano-4-((S)-3-methoxypyrrolidin-1-yl)pyridin-2-yl)-7-formyl-6-(((S)-4-methyl-2-carbonyloxazolidin-3-yl)methyl)-3,4-dihydro-1,8-naphthyridin-1(2H)-carboxamide]	> 10	> 10	34.6	39.3								
N#Cc1cnc(NC(=O)N2CCCc3cc(CN4CCOCC4=O)c(C=O)nc32)cc1NCCOC1CCCC1 [Example 5, N-(5-Cyano-4-((2-(cyclopentyloxy)ethyl)amino)pyridin-2-yl)-7-formyl-6-((3-carbonylmorpholino)methyl)-3,4-dihydro-1,8-naphthyridin-1(2H)-carboxamide]	> 10	> 10	34.9	8.2								
COc1ccncc1Nc1cc(NC(=O)N2CCCc3cc(CN4CCOCC4=O)c(C=O)nc32)ncc1C#N [Example 58, N-(5-Cyano-4-((4-methoxypyridin-3-yl)amino)pyridin-2-yl)-7-formyl-6-((3-carbonylmorpholino)methyl)-3,4-dihydro-1,8-naphthyridin-1(2H)-carboxamide]	> 10	> 10	20.7	6.9								
CO[C@@H]1CCCC1Nc1cc(NC(=O)N2CCCc3cc(CN4CCOCC4=O)c(C=O)nc32)ncc1C#N (stereo partly drawn) [Example 1, N-(5-Cyano-4-(((trans)-2-methoxycyclopentyl)amino)pyridin-2-yl)-7-formyl-6-((3-carbonylmorpholino)methyl)-3,4-dihydro-1,8-naphthyridin-1(2H)-carboxamide]	> 10		3	0.7		0.5	1010	5040	66	1.1	1140	
CO[C@@H]1CCN(c2cc(NC(=O)N3CCCc4cc(CN5CCCOC5=O)c(C=O)nc43)ncc2C#N)C1 [Example 49, (R)-N-(5-Cyano-4-(3-methoxypyrrolidin-1-yl)pyridin-2-yl)-7-formyl-6-((2-carbonyl-1,3-oxazinan-3-yl)methyl)-3,4-dihydro-1,8-naphthyridin-1(2H)-carboxamide]	> 10	> 10	11.3	4.4								
CO[C@H]1CCN(c2cc(NC(=O)N3CCCc4cc(CN5CCCCOC5=O)c(C=O)nc43)ncc2C#N)C1 [Example 32]	> 10	> 10	5.8	3.1								
COC1(CNc2cc(NC(=O)N3CCCc4cc(CN5CCOCC5=O)c(C=O)nc43)ncc2C#N)CC1 [Example 9, N-(5-Cyano-4-(((1-methoxycyclopropyl)methyl)amino)pyridin-2-yl)-7-formyl-6-((3-carbonylmorpholino)methyl)-3,4-dihydro-1,8-naphthyridin-1(2H)-carboxamide]	> 10	> 10	9.1	1.4								
CO[C@H]1CCCC1Nc1cc(NC(=O)N2CCCc3cc(CN4CCOCC4=O)c(C=O)nc32)ncc1C#N (stereo partly drawn) [Example 15, N-(5-Cyano-4-(((cis)-2-methoxycyclopentyl)amino)pyridin-2-yl)-7-formyl-6-((3-carbonylmorpholino)methyl)-3,4-dihydro-1,8-naphthyridin-1(2H)-carboxamide]	> 10	> 10	4.9	3								
CO[C@@H]1CCN(c2cc(NC(=O)N3CCCc4cc(CN5CCCCOC5=O)c(C=O)nc43)ncc2C#N)C1 [Example 31, (R)-N-(5-Cyano-4-(3-methoxypyrrolidin-1-yl)pyridin-2-yl)-7-formyl-6-((2-carbonyl-1,3-oxazepin-3-yl)methyl)-3,4-dihydro-1,8-naphthyridin-1(2H)-carboxamide]	> 10	> 10	6.5			2	1920	1920	76.2	4.54	3720	
CO[C@H]1CCOCC1Oc1cc(NC(=O)N2CCCc3cc(CN4CCOCC4=O)c(C=O)nc32)ncc1C#N (stereo partly drawn) [Example 69, N-(5-Cyano-4-(((3,4)-trans-3-methoxytetrahydro-2H-pyran-4-yl)oxy)pyridin-2-yl) -7-formyl-6-((3-carbonylmorpholino)methyl)-3,4-dihydro-1,8-naphthyridin-1(2H)-carboxamide]					22.6							> 10
